This is an account of results in patent EP3219306B1, “COMPOSITION COMPRISING CITICOLINE AND HOMOTAURINE FOR PREVENTING AND TREATING NEUODEGENERATIVE DISEASES AND COGNITIVE DISORDERS” (NEURAXPHARM ITALY S.P.A., priority 2016, dated 2017).

Structures are written as SMILES. “Also recorded” adds a separate entry of the source.

One series concerns retinal cells. Conditions: for cytotoxicity (cell death) on the cell cultures: 1, 10, 100 µM for 24 h; for toxicity to retinal cells (MTT): 1, 10 or 100 µM. As to the method:
(§1) The MTT assay was used to measure the viability of both neuronal and retina cells. The cells were prepared in a 96-well plate in DMEM-F12 with 7% FBS. After cultured in DMEM-F12 without serum for 12 h, Ab25-35 ([…]) or glucose oxidase (GOX) alone or in combination with homotaurine (Hom), citicoline (CITC) or Hom + CITC were added to the medium. Twenty-four hours later, the cells were incubated with […] MTT (Roche, 0.5 mg/ml) at 37 °C for 4 hours, then the crystals were dissolved in […] DMSO. Absorbance at 570 nm was measured with a spectrophotometer (TECAN Infinite M200, Switzerland).

For series [1] the following is noted: 50 mg per day, individuals with an average decline of cognitive functions; cited from earlier work.
The target of a further series is Aβ40 (Homo sapiens, UniProt P05067). Conditions: 8-week treatment, 30 or 100 mg/kg/day; cited from earlier work.
Chain of Aβ40 (P05067 672-711 limits assumed, species assumed): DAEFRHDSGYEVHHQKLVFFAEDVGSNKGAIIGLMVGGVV
For a further series, the target named is Aβ42 (Homo sapiens, UniProt P05067). Conditions: 8-week treatment, 30 or 100 mg/kg/day; cited from earlier work.
Chain of Aβ42 (P05067 672-713 limits assumed, species assumed): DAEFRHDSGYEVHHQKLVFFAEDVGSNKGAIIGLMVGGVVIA
Series [2] deals with human retina pigment epithelium (ARPE-19). Briefly: MTT assay, cell viability of retina cells against cytotoxicity induced by glucose oxidase (GOX). The series is classed as cell-based. Conditions: cytotoxicity induced by GOX 50 mU/ml; 1 µM; n = 5. How it is done:
as §1
Background: Formazan colour is commonly taken as a measure of viable cells.

Series [3] can be described thus: Randomized double-blind, placebo-controlled trial in subjects with medium to moderate Alzheimer's disease. In kind it is in vivo, human. Conditions: 50, 100, 150 mg homotaurine in combination with 500, 750 and 1000 mg sodium citicoline. How it is done: Studies to evaluate the pharmacokinetic-pharmacodynamic effect of compositions for use of the invention have provided positive indications about the activity. In particular, in a randomized double-blind, placebo-controlled trial in which 58 subjects with from medium to moderate Alzheimer's disease were administered 50, 100, 150 mg of homotaurine in combination with 500, 750 and 1000 mg of sodium citicoline.

Series [4] is described as follows: Bioavailability of [methyl-14C]-labelled citicoline by oral and venous route, radioactivity in plasma. The series is classed as in vivo, experimental animal models. The text has this:
In experimental animal models, the applicant compared the bioavailability by oral and venous route of citicoline, labeling it with a radioactive label -[methyl-14C].

Another series can be described thus: Water solubility. The series is classed as physicochemical.

For the molecule `NCCCS(=O)(=O)O` [homotaurine, 3-amino-1-propanesulfonic acid], in the series with retinal cells, the “cytotoxicity (cell death) on the cell cultures” value is given as “None of the concentrations induced cell death; also recorded: substantial absence of cytotoxicity” and the “toxicity to retinal cells (MTT)” value is on record as “no evidence of selective toxicity”. Also, in series [1], the “effect on atrophy of the hippocampus” value was “positive effect” and the “effect on episodic memory loss” value is “positive effect”. Further, the “plasma level of Aβ40” value at Aβ40 is recorded as “able to reduce”. The “plasma level of Aβ42” value on Aβ42 is on record as “able to reduce”. Also, the “cell viability (MTT)” value in series [2] is reported as “able to improve the cell viability”. Besides, in series [3], the “crossing of the blood-brain barrier” value was “crossed the blood-brain barrier”.
Take `C[N+](C)(C)CCOP(=O)([O-])OP(=O)([O-])OC[C@H]1O[C@@H](n2ccc(N)nc2=O)[C@H](O)[C@@H]1O.[Na+]` [sodium citicoline]: the “crossing of the blood-brain barrier” value in series [3] is reported as “crossed the blood-brain barrier”.
Regarding `C[N+](C)(C)CCOP(=O)(O)OP(=O)([O-])OC[C@H]1O[C@@H](n2ccc(N)nc2=O)[C@H](O)[C@@H]1O` [citicoline, 2-[{[5-(4-amino-2-oxopyrimidin-1-yl)-3,4-dihydroxyoxolan-2-yl]methoxy-hydroxyphosphoryl}oxy-hydroxyphosphoryl]oxyethyl-thrimethylazanium], the bioavailability entry in series [4] (oral administration) is given as “greater than 90%”. Further, in series [4] (oral vs venous route, [methyl-14C] label), the “equivalence of the two alternative administration routes (percentage of radioactivity in plasma over time)” value was “about 90%”. Also, in the series with retinal cells, the “cytotoxicity (cell death) on the cell cultures” value was “None of the concentrations induced cell death; also recorded: substantial absence of cytotoxicity” and the “toxicity to retinal cells (MTT)” value is given as “no evidence of selective toxicity”. Besides, in the series “Water solubility”, the water solubility result was “high”.
